Here are results for 4 molecules from patent US5437982A, “Methods of identifying specific inactivation gate inhibitors of the sodium channel” (University of Washington, priority 1993, dated 1995).

What all share (assay type): cell-based
For assay [1], the target named is sodium channel in CNaIIA cells (Rattus norvegicus, UniProt P04775). Nature of the assay: Blocking of the sodium channel in CNaIIA cells by IFM-amide during repetitive stimulation. The settings on record: for dependence of inhibition of sodium channels / sodium channel blocking: repetitive stimulation; for sodium channel blocking: FIGS. 7 and 8. The text has this:
It was reasoned that a tripeptide IFM-amide could be an effective inactivation gate peptide since it contains both the critical IFM residues and the charge of the unblocked α-amino group in the isoleucine residue. […] During repetitive stimulation, increased inhibition is observed with each succeeding pulse (pulse #) until a steady state is reached (FIG. 7). The degree of inhibition at steady state is dependent on the frequency of the stimulation pulses (% Ipulse #1; FIG. 7) and on the voltage of the stimulating pulses (FIG. 8). […] This implies that IFM amide has greater intrinsic affinity for the receptor site that blocks the sodium channel.

The target in assay [2] is wild-type Type IIA sodium channels (Rattus norvegicus, UniProt P04775). Nature of the assay: Voltage- and frequency-dependent block of sodium channels, sodium currents recorded in CNaIIA-1 cells. The settings on record: for block of rapidly cycling type IIA sodium channels over the entire voltage range: 10 Hz voltage pulses, -50 to +100 mV. How it is done:
(§1) Experiments were performed on wild-type Type IIA sodium channels stably transfected into Chinese hamster ovary (CHO) cells (CNalIA-1; as described in citation 23, which is incorporated herein by reference) and mutant (F1489Q) sodium channels transiently transfected into human kidney carcinoma cells (as described in citations 24 and 25, which are incorporated herein by reference).
The effects of the KIFMK gate peptide on sodium channels was tested by backfilling an electrode with a recording solution containing 1 mM peptide after loading the tip of the electrode with a buffer of peptide-free solution (i.e., to enhance seal formation when the electrode was inserted into a cell). After forming a high-resistance seal and breaking through the cell membrane, the peptide rapidly diffused into the cell and caused the appearance of tail currents (see below) within 10 minutes. When stabilized, sodium currents were recorded in the cells before and after a series of 10 Hz voltage pulses that varied over the range -50 to +100 mV. Parallel control experiments were conducted in which electrodes were not backfilled with peptides. The magnitude of the sodium currents in the experimental and control preparations were compared.
As a control, a KIQMK peptide was prepared to mimic the sequence present in mutant F 1489Q sodium channels.

Assay [3] concerns mutant F1489Q sodium channels. Nature of the assay: Restoration of inactivation in mutant sodium channels transiently expressed in TSQ-201 cells. The settings on record: for inactivation of mutant (F1489Q) sodium channels: peptide perfused at 1 mM into TSQ-201 cells, FIG. 4. On the procedure: as §1
Mutant F1489Q sodium channels were transiently expressed in TSQ-201 cells (24). The mutant channels in the cells activated normally but inactivated very slowly. […] The time course of inactivation for the mutant channels was dramatically slowed over the entire voltage range. Having established the properties of the test cells and mutant channels, the peptides KIFMK and KIQMK were next tested. KIFMK or KIQMK were perfused (at a concentration of 1 mM) into the TSQ-201 cells expressing the mutant (F1489Q) sodium channels.

Assay [4] has as its target scorpion-toxin modified wild-type sodium channels (Rattus norvegicus, UniProt P04775). Nature of the assay: Inactivation in scorpion-toxin modified wild-type sodium channels in CNaIIA-1 cells. The conditions noted are these: 100 nM LqTx in bath; test voltage to 0 mV; FIG. 6. From the text: Externally applied alpha-scorpion toxins slow sodium channel inactivation without affecting activation (reviewed in 26). Sodium currents in stably transfected CNaIIA-1 cells respond to a depolarizing test voltage to 0 mV with rapid activation and inactivation of the sodium channel. […] KIQMK, on the other hand, had no effect (FIG. 6).

In assay [5] the target is Wild-type IIA sodium channels (Rattus norvegicus, UniProt P04775). Nature of the assay: Competition with the normal inactivation process: tail currents by whole-cell voltage clamp. The conditions noted are these: cell perfused with peptide; for macroscopic sodium current elicited by depolarizing test pulse to 0 mV: versus controls; for tail currents elicited by repolarization pulse: from 0 to -80 mV, FIG. 5. From the text: Considering binding of KIFMK inactivation gate peptide to putative inactivation gate receptor site(s) in the intracellular mouth of the sodium channel, peptide binding might prevent channel closure by the natural inactivation gate due to steric hindrance. In this model, closure of the inactivation gate would be prevented by the drug and after depolarization-induced opening, repolarization should cause the peptide to dissociate from the channel, leaving the channel open for a "brief period" of time before closure and inactivation can block the channel. The existence of the "brief period" of channel opening was captured and recorded as a rising component of tail current in the following experiments.
Wild-type IIA sodium channels, sequence (P04775 whole entry, the tested form may be a part): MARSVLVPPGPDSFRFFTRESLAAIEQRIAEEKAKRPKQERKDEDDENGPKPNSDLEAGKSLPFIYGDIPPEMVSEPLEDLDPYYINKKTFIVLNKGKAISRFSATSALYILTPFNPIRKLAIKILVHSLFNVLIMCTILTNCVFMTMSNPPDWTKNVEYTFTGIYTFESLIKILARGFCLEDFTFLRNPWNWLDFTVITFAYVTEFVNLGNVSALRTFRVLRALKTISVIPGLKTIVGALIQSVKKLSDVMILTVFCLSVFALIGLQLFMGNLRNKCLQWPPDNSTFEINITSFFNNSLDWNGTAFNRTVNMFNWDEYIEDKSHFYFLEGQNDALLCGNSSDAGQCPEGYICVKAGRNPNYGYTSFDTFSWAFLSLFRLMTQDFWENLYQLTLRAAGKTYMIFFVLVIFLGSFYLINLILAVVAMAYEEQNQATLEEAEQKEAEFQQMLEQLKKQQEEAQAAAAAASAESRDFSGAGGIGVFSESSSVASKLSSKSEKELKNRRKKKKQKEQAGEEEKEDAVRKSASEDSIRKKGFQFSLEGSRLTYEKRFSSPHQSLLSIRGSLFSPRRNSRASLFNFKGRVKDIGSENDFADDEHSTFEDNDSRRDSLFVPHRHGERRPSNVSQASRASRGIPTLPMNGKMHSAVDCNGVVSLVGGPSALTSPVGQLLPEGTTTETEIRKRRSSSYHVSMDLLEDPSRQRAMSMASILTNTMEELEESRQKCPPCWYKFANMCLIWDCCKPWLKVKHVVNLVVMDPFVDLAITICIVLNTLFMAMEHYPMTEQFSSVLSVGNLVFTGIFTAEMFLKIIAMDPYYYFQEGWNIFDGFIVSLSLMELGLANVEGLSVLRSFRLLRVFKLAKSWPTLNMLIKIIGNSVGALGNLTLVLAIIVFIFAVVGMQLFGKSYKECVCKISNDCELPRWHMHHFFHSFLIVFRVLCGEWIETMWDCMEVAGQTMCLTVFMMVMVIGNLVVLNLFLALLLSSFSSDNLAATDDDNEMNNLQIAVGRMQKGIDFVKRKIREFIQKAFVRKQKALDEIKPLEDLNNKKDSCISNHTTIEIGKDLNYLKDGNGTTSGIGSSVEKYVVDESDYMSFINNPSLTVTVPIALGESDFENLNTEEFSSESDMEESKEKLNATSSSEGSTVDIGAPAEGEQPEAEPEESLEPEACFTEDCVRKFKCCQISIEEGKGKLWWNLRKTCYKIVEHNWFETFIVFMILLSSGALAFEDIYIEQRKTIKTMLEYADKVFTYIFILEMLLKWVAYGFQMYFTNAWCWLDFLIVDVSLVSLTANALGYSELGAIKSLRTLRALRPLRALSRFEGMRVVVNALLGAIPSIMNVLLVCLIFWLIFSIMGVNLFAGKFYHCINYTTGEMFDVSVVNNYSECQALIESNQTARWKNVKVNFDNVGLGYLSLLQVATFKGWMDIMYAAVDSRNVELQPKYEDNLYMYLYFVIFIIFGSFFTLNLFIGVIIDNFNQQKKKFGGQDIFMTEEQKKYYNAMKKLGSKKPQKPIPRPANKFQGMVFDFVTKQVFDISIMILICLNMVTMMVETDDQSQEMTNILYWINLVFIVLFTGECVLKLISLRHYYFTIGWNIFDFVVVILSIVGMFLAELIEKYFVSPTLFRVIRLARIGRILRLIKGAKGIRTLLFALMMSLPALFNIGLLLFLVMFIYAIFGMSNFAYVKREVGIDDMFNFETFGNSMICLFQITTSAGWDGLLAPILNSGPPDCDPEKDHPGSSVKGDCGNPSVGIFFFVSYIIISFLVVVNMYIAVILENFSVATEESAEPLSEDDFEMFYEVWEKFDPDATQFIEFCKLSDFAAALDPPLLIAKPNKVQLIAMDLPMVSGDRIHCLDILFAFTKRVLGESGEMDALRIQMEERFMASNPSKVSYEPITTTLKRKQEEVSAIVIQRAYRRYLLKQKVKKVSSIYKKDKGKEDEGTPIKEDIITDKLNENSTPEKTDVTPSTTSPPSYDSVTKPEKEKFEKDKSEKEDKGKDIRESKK
Wild-type IIA sodium channels were recorded using a whole-cell voltage clamp method. Under the recording conditions used, the sodium channels have tail currents upon rapid repolarization that declined exponentially without a rising phase because the channel rapidly closes upon repolarization (FIG. 5A). The magnitude of the tail currents decreases as the duration of the test pulse is increased. Repetitive pulsing created a family of tail current recordings that decreased exponentially (from a starting level near that of the sodium current), without any rising component in the recorded curves (FIG. 5A). […] The amplitude of the rising component of the latter tail currents decreased with increasing pulse duration as the macroscopic sodium current decreased.

In assay [6] the test system is Na+ channels. Nature of the assay: Structural specificity: ability of peptides to block sodium channels and restore fast inactivation. The settings on record: qualitative summary; methods similar to Examples 1-4. The text has this: The results of these experiments are summarized qualitatively below.

“Also recorded” adds a separate entry of the source. Where a SMILES comes first, the peptide text is derived from it.

sodium channel in CNaIIA cells, sequence (P04775 whole entry): as the sequence (P04775 whole entry, the tested form may be a part) above
wild-type Type IIA sodium channels, sequence (P04775 whole entry): as the sequence (P04775 whole entry, the tested form may be a part) above
scorpion-toxin modified wild-type sodium channels, sequence (P04775 whole entry): as the sequence (P04775 whole entry, the tested form may be a part) above

`CC[C@H](C)[C@H](N)C(=O)N[C@@H](Cc1ccccc1)C(=O)N[C@@H](CCSC)C(N)=O` [IFM-amide] (H-Ile-Phe-Met-NH2): the “membrane potentials at which block is effective, compared with KIFMK” value in assay [1] (compare FIGS. 3 and 8) is “effective sodium channel blocker at much more negative membrane potentials than KIFMK”. In addition, in assay [1] (experiments like those in Example 6), the “blocking activity compared with IFM free acid or acetyl IFM free acid” value is listed as “increased blocking activity”. Besides, in assay [1], the “dependence of inhibition of sodium channels” value is “voltage-sensitive blocking” and the sodium channel blocking entry is given as “blocking of the sodium channel”. Also, in assay [1] (listed as IFM amide), the sodium channel blocking result is given as “very effective sodium channel blocker”; the “dependence of inhibition of sodium channels” value is “voltage- and frequency-dependent”.
Consider `CC[C@H](C)[C@H](NC(=O)[C@H](CCCCN)NC(C)=O)C(=O)N[C@@H](Cc1ccccc1)C(=O)N[C@@H](CCSC)C(=O)N[C@@H](CCCCN)C(N)=O` [KIFMK, acetyl-KIFMK-amide], for which, in assay [2] (1 mM peptide in backfilled electrode), the “time to appearance of tail currents after peptide diffusion into the cell” value was not above 10 min. The “reduction (inhibition) of sodium currents in response to frequent depolarizing pulses” value in assay [2] (1 mM peptide in electrode, 10 Hz pulses, after 15 min perfusion/cycling) is recorded as “substantial level of inhibition; also recorded: substantially reduced”. Further, in assay [2] (1 mM peptide, FIG. 3), the “channel block by 10 Hz pulses given at 100 mV” value was “completely blocked”. Besides, in assay [2] (1 mM peptide, closed channels), the “reduction in sodium current when cell membranes not depolarized frequently” value is “Little reduction”. Further, the “blockage of currents generated in response to 10 Hz pulses at positive voltages” value in assay [2] (1 mM peptide, greater than 0 mV) is on record as “substantial”. In assay [2] (FIG. 3), the “block of rapidly cycling type IIA sodium channels over the entire voltage range” value is “inhibited”. Moreover, in assay [2] (FIG. 2A, relative to control recording without peptide), the “inhibition of sodium currents within 4 minutes of cycling” value is recorded as “insignificant level of inhibition”. In assay [2] (combined results of Example 1), the “character of the inhibitory effect on the sodium channel” value is “strong and voltage- and frequency-dependent”. Besides, the “time to steady-state level of inhibition” value in assay [3] (1 mM peptide) is reported as “less than 2 ms”. The “course and extent of induced inactivation” value in assay [3] (1 mM, compared with wild-type channel function) is reported as “rapid but incomplete”. The “inactivation of mutant (F1489Q) sodium channels” value in assay [3] is recorded as “restore inactivation; also recorded: successfully inactivated”. Moreover, the “initial rate of sodium channel inactivation in presence of α-scorpion toxin” value in assay [4] is “significantly accelerated; also recorded: partially restore inactivation activity”. In addition, in assay [5], the “macroscopic sodium current elicited by depolarizing test pulse to 0 mV” value was “decayed with a time course faster than that of controls”; the “tail currents elicited by repolarization pulse” value is “rose to a peak and then decayed much more slowly than in controls; also recorded: significant tail currents”.
Turning to Ac-DIFMT-NH2 [acetyl-DIFMT-amide], in assay [6], the “Inhibition of Na+ channels” value was “ineffective”.
For “Ac-KIQMK-NH2 [KIQMK, acetyl-KIQMK-amide, reference compound]”, the “block of rapidly cycling type IIA sodium channels over the entire voltage range” value in assay [2] (FIG. 3) is “inactive; also recorded: did not block”. In addition, in assay [3], the “inactivation of mutant (F1489Q) sodium channels” value is recorded as “without effect; also recorded: did not”. Besides, the “initial rate of sodium channel inactivation in presence of α-scorpion toxin” value in assay [4] is “no effect”. Moreover, in assay [5], the “macroscopic sodium current elicited by depolarizing test pulse to 0 mV” value is recorded as “no significant effect” and the “tail currents elicited by repolarization pulse” value was “no significant effect; also recorded: no significant gating currents”.
